Experimental data taken from publication PMC12136037, “Type II kinase inhibitors that target Parkinson’s disease–associated LRRK2” (Science Advances, 2025).

Key:
Assay in all cases: DSF 100 kinase selectivity screen;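 note: compound tested at 20 µM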
Assay type in all cases: binding
[1] = target: T1, ~100 representative kinases (Homo sapiens, UniProt O14733); conditions: protein MAP2K7; average of three replicates
T1 construct: Recombinant protein kinase domains with a concentration of 2 μM
T1 sequence (O14733 1-419): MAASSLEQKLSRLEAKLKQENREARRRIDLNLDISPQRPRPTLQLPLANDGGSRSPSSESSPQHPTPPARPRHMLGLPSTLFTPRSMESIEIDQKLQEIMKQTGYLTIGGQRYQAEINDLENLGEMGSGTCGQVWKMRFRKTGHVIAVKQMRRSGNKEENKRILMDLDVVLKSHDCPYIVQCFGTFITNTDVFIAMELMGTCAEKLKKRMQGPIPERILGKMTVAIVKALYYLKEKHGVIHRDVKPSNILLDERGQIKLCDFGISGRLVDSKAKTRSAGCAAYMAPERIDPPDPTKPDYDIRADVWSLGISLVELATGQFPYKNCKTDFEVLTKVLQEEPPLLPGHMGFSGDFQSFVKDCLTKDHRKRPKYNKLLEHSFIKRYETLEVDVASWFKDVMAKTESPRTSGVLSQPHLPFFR
Method in brief: (§1)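 Each kinase domain, at 2 μM, is mixed with 20 μM test compound and SYPRO Orange in Hepes (20 mM, pH 7.5) with 500 mM NaCl. Temperature is then raised at 3°C/min and fluorescence-monitored unfolding yields the melting temperature change, ΔTm in degrees Celsius.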

[2] = target: T2, ~100 representative kinases (Homo sapiens, UniProt P54756); conditions: Protein EPHA5; average of three replicates
T2 construct: Recombinant protein kinase domains with a concentration of 2 μM
Method in brief: as §1

[3] = target: T3, ~100 representative kinases (Homo sapiens, UniProt Q6PHR2); conditions: Protein ULK3; DSF; average of three replicates
T3 construct: Recombinant protein kinase domains with a concentration of 2 μM
T3 sequence (Q6PHR2 1-472): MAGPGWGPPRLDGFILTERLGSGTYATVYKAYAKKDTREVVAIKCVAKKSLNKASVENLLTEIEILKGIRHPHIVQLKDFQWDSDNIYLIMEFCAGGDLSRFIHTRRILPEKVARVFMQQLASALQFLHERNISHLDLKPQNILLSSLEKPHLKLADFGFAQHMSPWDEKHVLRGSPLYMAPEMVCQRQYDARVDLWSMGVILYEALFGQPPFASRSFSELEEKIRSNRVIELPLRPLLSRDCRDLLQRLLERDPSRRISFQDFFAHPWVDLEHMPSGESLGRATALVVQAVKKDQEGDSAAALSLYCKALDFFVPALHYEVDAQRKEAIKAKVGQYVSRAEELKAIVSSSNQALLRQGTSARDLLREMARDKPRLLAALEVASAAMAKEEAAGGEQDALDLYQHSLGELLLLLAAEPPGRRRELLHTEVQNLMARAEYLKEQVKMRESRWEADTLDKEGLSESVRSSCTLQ
Method in brief: as §1

[4] = target: T4, ~100 representative kinases (Homo sapiens, UniProt Q9UKI8); conditions: Protein TLK1; DSF; average of three replicates
T4 construct: Recombinant protein kinase domains with a concentration of 2 μM
T4 sequence (Q9UKI8 1-766): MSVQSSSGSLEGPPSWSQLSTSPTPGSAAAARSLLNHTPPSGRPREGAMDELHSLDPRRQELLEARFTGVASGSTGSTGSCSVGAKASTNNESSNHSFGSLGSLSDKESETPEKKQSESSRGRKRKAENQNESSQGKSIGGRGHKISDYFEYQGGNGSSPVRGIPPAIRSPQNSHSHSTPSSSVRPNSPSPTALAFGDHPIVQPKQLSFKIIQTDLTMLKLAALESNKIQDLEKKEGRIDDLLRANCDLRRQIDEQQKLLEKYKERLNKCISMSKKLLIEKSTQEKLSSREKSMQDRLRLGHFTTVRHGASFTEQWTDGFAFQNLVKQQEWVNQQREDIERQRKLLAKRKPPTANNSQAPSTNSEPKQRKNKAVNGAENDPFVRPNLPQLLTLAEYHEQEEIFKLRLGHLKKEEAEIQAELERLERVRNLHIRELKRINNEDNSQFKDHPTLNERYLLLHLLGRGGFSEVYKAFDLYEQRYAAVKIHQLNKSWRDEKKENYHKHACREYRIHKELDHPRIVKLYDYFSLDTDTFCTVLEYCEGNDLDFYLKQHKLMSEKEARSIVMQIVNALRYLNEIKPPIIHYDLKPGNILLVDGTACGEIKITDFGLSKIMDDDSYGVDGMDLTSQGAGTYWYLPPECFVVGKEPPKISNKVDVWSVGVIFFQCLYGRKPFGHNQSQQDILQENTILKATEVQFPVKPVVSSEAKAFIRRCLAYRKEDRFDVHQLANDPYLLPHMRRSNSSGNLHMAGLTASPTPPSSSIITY
Method in brief: as §1

T2 sequence (P54756 25-1037): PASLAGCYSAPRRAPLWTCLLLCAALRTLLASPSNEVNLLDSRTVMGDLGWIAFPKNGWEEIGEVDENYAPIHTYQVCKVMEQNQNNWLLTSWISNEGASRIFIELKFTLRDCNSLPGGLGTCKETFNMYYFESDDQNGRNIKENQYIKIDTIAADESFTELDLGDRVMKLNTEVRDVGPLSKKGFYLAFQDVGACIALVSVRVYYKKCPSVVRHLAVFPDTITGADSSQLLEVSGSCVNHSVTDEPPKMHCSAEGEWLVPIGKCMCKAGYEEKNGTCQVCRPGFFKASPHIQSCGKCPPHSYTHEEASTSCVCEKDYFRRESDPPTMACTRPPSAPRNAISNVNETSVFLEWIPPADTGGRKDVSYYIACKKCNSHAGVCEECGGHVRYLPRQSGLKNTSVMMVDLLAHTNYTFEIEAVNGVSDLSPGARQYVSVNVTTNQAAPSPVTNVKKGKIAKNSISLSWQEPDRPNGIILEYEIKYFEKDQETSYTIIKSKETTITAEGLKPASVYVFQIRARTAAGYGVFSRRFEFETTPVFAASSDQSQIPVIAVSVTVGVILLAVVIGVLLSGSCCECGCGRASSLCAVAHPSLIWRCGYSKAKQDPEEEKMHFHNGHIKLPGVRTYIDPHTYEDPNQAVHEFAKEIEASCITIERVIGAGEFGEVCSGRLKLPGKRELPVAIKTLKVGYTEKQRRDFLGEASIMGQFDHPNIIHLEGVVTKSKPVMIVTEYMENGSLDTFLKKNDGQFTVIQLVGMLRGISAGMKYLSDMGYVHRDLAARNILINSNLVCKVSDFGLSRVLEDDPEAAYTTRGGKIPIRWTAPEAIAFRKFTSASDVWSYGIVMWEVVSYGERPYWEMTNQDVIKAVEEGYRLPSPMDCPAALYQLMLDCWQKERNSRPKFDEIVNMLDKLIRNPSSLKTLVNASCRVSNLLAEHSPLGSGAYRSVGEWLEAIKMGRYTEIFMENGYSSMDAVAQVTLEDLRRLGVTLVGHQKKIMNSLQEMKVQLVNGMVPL

| Compound | dTm [1] [K] | dTm [2] [K] | dTm [3] [K] | dTm [4] [K] |
| --- | --- | --- | --- | --- |
| Cc1ccc(C(=O)Nc2ccc(CN3CCN(C)CC3)c(C(F)(F)F)c2)cc1C#Cc1c[nH]c2ncnc(N3CCOCC3)c12 [Compound 1] | 4.67 | 5.80 | 9.22 | 0.86 |
| O=C(Nc1ccc(F)cc1)C1(C(=O)Nc2cccc(-c3c[nH]c4ncnc(N5CCOCC5)c34)c2)CC1 [Compound 2] | 4.21 | 3.27 | 7.39 | -1.13 |
| O=C(Nc1cccc(-c2c[nH]c3ncnc(N4CCOCC4)c23)c1)c1cccn(-c2ccc(F)cc2)c1=O [Compound 4] | 5.76 | 3.25 | 8.63 | -0.72 |
| Cc1cc(NC(=O)C2(C(=O)Nc3ccc(F)cc3)CC2)cc(-c2c[nH]c3ncnc(N4CCOCC4)c23)c1 [Compound 6] | 1.34 | 2.48 | 3.31 | 1.18 |
| O=C(Nc1cccc(-c2c[nH]c3ncnc(N4CCOCC4)c23)c1)C1(C(=O)Nc2cccc3c2CCC3)CC1 [Compound 11] | 4.41 | -0.41 | 5.81 | 1.55 |
| O=C(Nc1ccccc1)C1(C(=O)Nc2cccc(-c3c[nH]c4ncnc(N5CCOCC5)c34)c2)CC1 [Compound 12] | 4.30 | 1.91 | 7.80 | 0.18 |
| O=C(Nc1ccc(Cl)cc1)C1(C(=O)Nc2cccc(-c3c[nH]c4ncnc(N5CCOCC5)c34)c2)CC1 [Compound 13] | 4.62 | 4.99 | 9.91 | 0.97 |
| Cc1ccc(NC(=O)C2(C(=O)Nc3cccc(-c4c[nH]c5ncnc(N6CCOCC6)c45)c3)CC2)cc1 [Compound 14] | 2.82 | 3.63 | 7.72 | -0.87 |
| CCc1ccc(NC(=O)C2(C(=O)Nc3cccc(-c4c[nH]c5ncnc(N6CCOCC6)c45)c3)CC2)cc1 [Compound 15] | 3.12 | 2.15 | 8.77 | -0.49 |
| COc1ccc(NC(=O)C2(C(=O)Nc3cccc(-c4c[nH]c5ncnc(N6CCOCC6)c45)c3)CC2)cc1 [Compound 16] | 0.55 | -0.30 | 5.26 | -1.11 |
| O=C(Nc1cccc(-c2c[nH]c3ncnc(N4CCOCC4)c23)c1)C1(C(=O)Nc2ccc(F)c(F)c2)CC1 [Compound 17] | 4.27 | 2.05 | 7.52 | -0.35 |
| O=C(Nc1cccc(-c2c[nH]c3ncnc(N4CCOCC4)c23)c1)C1(C(=O)Nc2ccc(F)c(Cl)c2)CC1 [Compound 18] | 5.35 | 2.50 | 9.54 | 0.17 |
| O=C(Nc1cccc(-c2c[nH]c3ncnc(N4CCOCC4)c23)c1)C1(C(=O)Nc2ccc(F)c(Br)c2)CC1 [Compound 19] | 4.93 | 2.70 | 5.66 | 2.03 |
| Cc1cc(NC(=O)C2(C(=O)Nc3cccc(-c4c[nH]c5ncnc(N6CCOCC6)c45)c3)CC2)ccc1F [Compound 20] | 5.31 | 3.44 | 10.21 | -0.17 |
| COc1cc(NC(=O)C2(C(=O)Nc3cccc(-c4c[nH]c5ncnc(N6CCOCC6)c45)c3)CC2)ccc1F [Compound 21] | 4.61 | 0.44 | 8.22 | -0.77 |
| CC(C)(C)c1cccc(NC(=O)C2(C(=O)Nc3cccc(-c4c[nH]c5ncnc(N6CCOCC6)c45)c3)CC2)c1 [Compound 22] | 3.77 | 2.41 | 11.44 | 0.35 |
| O=C(Nc1cccc(-c2c[nH]c3ncnc(N4CCOCC4)c23)c1)C1(C(=O)Nc2ccc(F)cc2F)CC1 [Compound 23] | 3.10 | 1.86 | 8.50 | -0.64 |
| Cc1cc(F)ccc1NC(=O)C1(C(=O)Nc2cccc(-c3c[nH]c4ncnc(N5CCOCC5)c34)c2)CC1 [Compound 24] | 3.14 | 0.97 | 7.53 | -0.75 |
| O=C(Nc1cccc(-c2c[nH]c3ncnc(N4CCOCC4)c23)c1)C1(C(=O)Nc2cc(Br)c(F)cc2F)CC1 [Compound 25] | 3.02 | 1.57 | 9.25 | 1.57 |
| O=C(Nc1cccc(-c2c[nH]c3ncnc(N4CCOCC4)c23)c1)C1(C(=O)Nc2ccc(F)c(Br)c2F)CC1 [Compound 26] | 3.31 | 1.29 | 7.33 | 1.63 |
| O=C(Nc1cc(F)cc(Br)c1)C1(C(=O)Nc2cccc(-c3c[nH]c4ncnc(N5CCOCC5)c34)c2)CC1 [Compound 27] | 3.41 | 0.40 | 7.46 | 1.59 |
| CC(C)(C)c1cc(NC(=O)Nc2cccc(-c3c[nH]c4ncnc(N5CCOCC5)c34)c2)n(-c2ccc3ncccc3c2)n1 [Compound 28] | 3.13 | 9.59 | 7.06 | 0.24 |
| Cc1ccc(-n2nc(C(C)(C)C)cc2NC(=O)Nc2cccc(-c3c[nH]c4ncnc(N5CCOCC5)c34)c2)cc1 [Compound 29] | 4.70 | 6.71 | 7.43 | 0.25 |
| Cc1ccc(-n2nc(C(C)(C)C)cc2NC(=O)Nc2cccc(-c3c[nH]c4nc(Cl)nc(N5CCOCC5)c34)c2)cc1 [Compound 30] | 2.39 | 0.15 | 0.27 | -1.50 |
| CC(=O)N1CCN(c2nc(Cl)nc3[nH]cc(-c4cccc(NC(=O)Nc5cc(C(C)(C)C)nn5-c5ccc(C)cc5)c4)c23)CC1 [Compound 31] | 2.84 | 1.56 | 0.92 | -1.67 |
| CCSc1nc(NC)c2c(-c3cccc(NC(=O)Nc4cc(C(C)(C)C)nn4-c4ccc(C)cc4)c3)c[nH]c2n1 [Compound 32] | 0.27 | 0.04 | 0.44 | -0.57 |
| COc1cc(C(=O)N2CCOCC2)c(F)cc1Nc1nc(N(C)C)c2c(Cl)c[nH]c2n1 [Compound 36] | 2.56 | -0.96 | 4.06 | -1.95 |
| COc1cc2c(Oc3ccc(NC(=O)C4(C(=O)Nc5ccc(F)cc5)CC4)cc3F)ccnc2cc1OCCCN1CCOCC1 [Foretinib, reference compound] |  | 11.59 | 14.26 | 0.36 |
| CN[C@@H]1C[C@H]2O[C@@](C)([C@@H]1OC)n1c3ccccc3c3c4c(c5c6ccccc6n2c5c31)C(=O)NC4 [Staurosporine] | 7.05 |  |  |  |
